Laboratory results as given in ChEMBL document CHEMBL1159256, “Acetylcholinesterase inhibition by territrem B derivatives” (J Nat Prod, 1995).
The source made the active and inactive calls. The calls are words filed in the database; no cut-off is given here.

How the values were obtained:
[1] = molecular target: Acetylcholinesterase (Electrophorus electricus) (UniProt O42275); assay: (§1) Inhibition of electric eel AChE by Ellman's method
[2] = molecular target: Acetylcholinesterase (Electrophorus electricus, UniProt O42275); assay: as §1; settings: read-out: I50
Sequence of Acetylcholinesterase (O42275 whole entry): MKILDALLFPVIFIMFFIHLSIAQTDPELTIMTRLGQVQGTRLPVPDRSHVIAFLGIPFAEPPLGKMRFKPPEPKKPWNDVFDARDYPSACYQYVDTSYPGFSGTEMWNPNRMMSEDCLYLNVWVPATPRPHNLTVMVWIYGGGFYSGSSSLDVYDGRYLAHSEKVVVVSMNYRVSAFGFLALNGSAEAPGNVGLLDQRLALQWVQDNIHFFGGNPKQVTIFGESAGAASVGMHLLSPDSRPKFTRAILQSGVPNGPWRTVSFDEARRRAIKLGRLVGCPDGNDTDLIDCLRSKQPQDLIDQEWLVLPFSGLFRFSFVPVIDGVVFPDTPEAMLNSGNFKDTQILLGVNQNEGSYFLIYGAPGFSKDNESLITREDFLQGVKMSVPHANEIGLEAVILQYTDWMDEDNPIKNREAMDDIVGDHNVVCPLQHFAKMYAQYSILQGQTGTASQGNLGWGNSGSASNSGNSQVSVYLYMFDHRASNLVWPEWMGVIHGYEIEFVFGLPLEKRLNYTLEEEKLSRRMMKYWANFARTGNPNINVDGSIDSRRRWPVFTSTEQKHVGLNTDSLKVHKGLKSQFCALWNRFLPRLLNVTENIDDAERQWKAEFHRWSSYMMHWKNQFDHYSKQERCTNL

Sequence of Acetylcholinesterase (Electrophorus electricus) (O42275 24-633 limits assumed): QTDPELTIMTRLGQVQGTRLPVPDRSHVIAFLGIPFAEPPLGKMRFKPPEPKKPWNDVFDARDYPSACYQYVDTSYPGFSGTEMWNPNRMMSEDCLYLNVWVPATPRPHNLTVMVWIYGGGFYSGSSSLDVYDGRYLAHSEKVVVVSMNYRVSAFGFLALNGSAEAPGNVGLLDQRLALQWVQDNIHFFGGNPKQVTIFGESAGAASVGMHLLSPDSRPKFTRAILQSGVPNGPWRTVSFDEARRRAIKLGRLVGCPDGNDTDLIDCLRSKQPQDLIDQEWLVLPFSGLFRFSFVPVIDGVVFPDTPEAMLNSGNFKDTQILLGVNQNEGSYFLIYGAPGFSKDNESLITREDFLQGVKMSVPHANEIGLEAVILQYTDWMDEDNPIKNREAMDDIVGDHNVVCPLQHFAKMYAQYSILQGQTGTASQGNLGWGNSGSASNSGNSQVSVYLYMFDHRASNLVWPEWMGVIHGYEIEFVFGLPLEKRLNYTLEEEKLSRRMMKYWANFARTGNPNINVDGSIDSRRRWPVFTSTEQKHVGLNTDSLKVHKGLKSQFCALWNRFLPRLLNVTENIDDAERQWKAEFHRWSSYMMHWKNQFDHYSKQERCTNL

| Compound | Activity [1] | IC50 [2] [µM] | inhibition ([1]; concentration not given here) [%] |
| --- | --- | --- | --- |
| COc1cc(CCC2=C(C(=O)O)C[C@]3(O)[C@@]4(C)C(=O)CCC(C)(C)[C@]4(O)CC[C@@]3(C)O2)cc(OC)c1OC | inactive | – | – |
| COc1cc(-c2cc3c(c(=O)o2)C[C@]2(O)[C@@]4(C)[C@H](O)C=CC(C)(C)[C@]4(O)CC[C@@]2(C)O3)cc(OC)c1OC [1-DIHYDROTERRITREM B] | – | 79 | – |
| COc1cc(-c2cc3c(c(=O)o2)C[C@]2(O)[C@@]4(C)C(=O)CCC(C)(C)[C@]4(O)CC[C@@]2(C)O3)cc(OC)c1OC [2,3-DIHYDROTERRITREM B] | – | 2.2 | – |
| COc1cc(-c2cc3c(c(=O)o2)C[C@]2(O)[C@@]4(C)C(=O)[C@H]5O[C@H]5C(C)(C)[C@]4(O)CC[C@@]2(C)O3)cc(OC)c1OC [2,3-EPOXYTERRITREM B] | – | 0.17 | – |
| COc1cc(-c2cc3c(c(=O)o2)C[C@]2(O)[C@@]4(C)C(=O)C=C[C@](C)(CI)[C@]4(O)CC[C@@]2(C)O3)cc(OC)c1OC [4BETA-IODOMETHYL-4BETA-DEMETHYL-TERRITREM B] | – | 0.29 | – |
| COc1cc(-c2cc3c(c(=O)o2)C[C@]2(O)[C@@]4(C)C(=O)C=CC(C)(C)[C@]4(O)CC[C@@]2(C)O3)cc(OC)c1OC [TERRITREM B] | – | 0.26 | 50 |
